Measurements from the Deep4Chem optical property database.
“And” between values parts separate entries of the source, which are not always exact repeats. Identical values can stand only once.

Experiment: solvent given as SMILES
[1] = in O=P(c1ccccc1)(c1ccccc1)c1ccccc1Oc1ccccc1P(=O)(c1ccccc1)c1ccccc1

## CCCCCCCCCCCCN1C(=O)c2c(c3ccc4cc(-c5ccc(-c6ccccc6)cc5)c(OC)cc4c3c3c2ccc2cc(-c4ccc(-c5ccccc5)cc4)c(OC)cc23)C1=O
In ClCCl
  fluorescence lifetime: 6.19 ns

## COc1ccc(-c2cc3c(cc2OC)-c2c(c4c(c5c2-c2cc(OC)c(-c6ccc(OC)cc6)cc2C5)C(=O)N(CCC(C)C)C4=O)C3)cc1
In C1CCOC1
  fluorescence lifetime: 4.42 ns

## CC(C)n1c(=O)c2cc3ccc4cccc5ccc(c2c1=O)c3c45
In ClC(Cl)Cl
  fluorescence lifetime: 5.16 ns

## CC1=CC(C)=[N+]2C1=C(c1ccc(I)cc1)c1c(C)cc(C)n1[B-]2(Oc1ccccc1)Oc1ccccc1
In ClC(Cl)Cl
  fluorescence lifetime: 0.38 ns

## COc1ccc2cc(C#Cc3ccc([N+](=O)[O-])cc3)ccc2c1
In C1CCOC1
  fluorescence lifetime: 0.57 ns
In ClC(Cl)Cl
  fluorescence lifetime: 0.77 ns
In ClCCl
  fluorescence lifetime: 0.32 ns

## N#Cc1c(-n2c3ccc(-c4ccccc4)cc3c3cc(-c4ccccc4)ccc32)c(-n2c3ccc(-c4ccccc4)cc3c3cc(-c4ccccc4)ccc32)c(C#N)c(-n2c3ccc(-c4ccccc4)cc3c3cc(-c4ccccc4)ccc32)c1-n1c2ccc(-c3ccccc3)cc2c2cc(-c3ccccc3)ccc21
In Cc1ccccc1
  fluorescence lifetime: 9 ns

## c1ccc2c(c1)c1ccccc1c1[nH]c(-c3ccc(-c4nc5c6ccccc6c6ccccc6c5[nH]4)cc3)nc21
In CS(C)=O
  fluorescence lifetime: 1.25 ns

## O=S(=O)(c1ccc(N(c2ccccc2)c2ccccc2)cc1)c1ccc(N(c2ccccc2)c2ccccc2)cc1
In Cc1ccccc1
  fluorescence lifetime: 2.2 ns
[1]
  fluorescence lifetime: 3.5 ns

## c1ccc(-c2cc3cccc[n+]3[b-]3c(-c4cccc5[b-]4[n+]4ccccc4cc5-c4ccccc4)cccc32)cc1
In C1CCCCC1
  fluorescence lifetime: 4.5 ns

## CC(C)[Si](C#Cc1cc2c(C#C[Si](C(C)C)(C(C)C)C(C)C)c(C#C[Si](C(C)C)(C(C)C)C(C)C)c3cc(C#C[Si](C(C)C)(C(C)C)C(C)C)cc4c(C#C[Si](C(C)C)(C(C)C)C(C)C)c(C#C[Si](C(C)C)(C(C)C)C(C)C)c(c1)c2c34)(C(C)C)C(C)C
In ClCCl
  fluorescence lifetime: 14.1 ns

## COc1ccc(N(c2ccccc2)c2ccc3ccc4c(N(c5ccccc5)c5ccc(OC)cc5)ccc5ccc2c3c54)cc1
In ClCCl
  fluorescence lifetime: 9 ns

## F[B-]1(F)Oc2ccccc2-c2cc(-n3c4ccc(-c5ccccc5)cc4c4cc(-c5ccccc5)ccc43)cc[n+]21
[1]
  fluorescence lifetime: 6.3 ns

## CC1(C)c2ccccc2-c2cc3c4cc(-n5c6ccccc6c6ccccc65)ccc4n(-c4ccc(-c5nc(-c6ccccc6)nc(-c6ccccc6)n5)cc4)c3cc21
[1]
  fluorescence lifetime: 34 ns

## C(#Cc1cccc2cc(-c3ccccc3)c3cc(-c4cc[b-]5c(c4)c(-c4ccccc4)cc4cccc(C#Cc6ccccc6)[n+]54)cc[b-]3[n+]12)c1ccccc1
In C1CCCCC1
  fluorescence lifetime: 2.4 ns

## CCCCCCCCCCCCn1cccc1/C=C/c1cc(OCCCC)c(/C=C/c2cccn2CCCCCCCCCCCC)cc1OCCCC
In Cc1ccccc1
  fluorescence lifetime: 1.26 ns

## Nc1cc(N)cc(-c2nc3ccccc3s2)c1
In C1CCCCC1
  fluorescence lifetime: 4.63 ns
In C1COCCO1
  fluorescence lifetime: 4.09 ns
In CC#N
  fluorescence lifetime: 4.14 ns
In CC(C)O
  fluorescence lifetime: 6.4 ns
In CCOC(C)=O
  fluorescence lifetime: 3.84 ns
In CCOCC
  fluorescence lifetime: 3.2 ns
In CO
  fluorescence lifetime: 2.07 ns
In O
  fluorescence lifetime: 1.32 ns

## C(=C\c1ccc(N(c2ccccc2)c2ccccc2)cc1)/c1ccc(/C=C/c2ccc(N(c3ccccc3)c3ccccc3)cc2)cc1
In C1CCOC1
  fluorescence lifetime: 1.25 ns
In CS(C)=O
  fluorescence lifetime: 1.53 ns
In Cc1ccccc1
  fluorescence lifetime: 0.99 ns

## CC(C)(C)c1ccc2c(c1)c1cc(C(C)(C)C)ccc1n2-c1cc(N2c3ccccc3C(c3ccccc3)(c3ccccc3)c3ccccc32)cc(-n2c3ccc(C(C)(C)C)cc3c3cc(C(C)(C)C)ccc32)c1C#N
In Cc1ccccc1
  fluorescence lifetime: 14.2 ns

## Cc1cc(C)c(C2=C(c3c(C)sc(-c4ccc(-c5nc(-c6ccccc6)c(-c6ccccc6)[nH]5)cc4)c3C)C(F)(F)C(F)(F)C2(F)F)s1
In C1CCOC1
  fluorescence lifetime: 0.42 ns

## COc1ccc(C#Cc2c3cc4ccccc4cc3c(C#Cc3ccc(OC)cc3)c3cc4ccccc4cc23)cc1
In ClCCl
  fluorescence lifetime: 4.6 ns

## COc1ncccc1B(O)O
In C1COCCO1
  fluorescence lifetime: 0.415 ns
In CC(C)O
  fluorescence lifetime: 0.399 ns
In CCCCCC
  fluorescence lifetime: 0.211 ns
In CCCCCCC
  fluorescence lifetime: 0.253 ns
In CCCCCCCC
  fluorescence lifetime: 0.299 ns
In CCCCCCCCO
  fluorescence lifetime: 0.463 ns
In CCO
  fluorescence lifetime: 0.499 ns
In CO
  fluorescence lifetime: 1.57 ns

## F[B-]1(F)OC(c2ccccc2)=Cc2cc(Cl)nc[n+]21
In Cc1ccccc1
  fluorescence lifetime: 0.19 ns

## CCCCCCCCN(CCCCCCCC)c1ccc(/C=C/c2ccc(C#Cc3ccc(-c4ccc(C#Cc5ccc(/C=C/c6ccc(N(CCCCCCCC)CCCCCCCC)cc6)cc5)cc4)cc3)cc2)cc1
In Cc1ccccc1
  fluorescence lifetime: 0.4 ns

## CN1CCCc2cc3c(C(F)(F)F)cc(=O)oc3cc21
In C1CCCCC1
  fluorescence lifetime: 4.2 ns
In CC#N
  fluorescence lifetime: 5.6 ns
In CCO
  fluorescence lifetime: 5.1 ns

## CCCCCCCCn1c2ccccc2c(=O)c2ccccc21
In CS(C)=O
  fluorescence lifetime: 7.96 ns

## CCOC(=O)CCCCCn1c2ccccc2c(=O)c2cc(N)ccc21
In O
  fluorescence lifetime: 10.9 ns

## CCN(CC)c1ccc2cc(-c3nc4ccccc4s3)c(=O)oc2c1
In C1CCCCC1
  fluorescence lifetime: 2.38 ns
In CC1CCCCC1
  fluorescence lifetime: 2.32 ns
In CC#N
  fluorescence lifetime: 3.2 ns and 2.55 ns
In CCC(C)CC
  fluorescence lifetime: 2.38 ns
In CCCCCC
  fluorescence lifetime: 2.37 ns
In CCO
  fluorescence lifetime: 2.5 ns
In CCOC(C)=O
  fluorescence lifetime: 2.46 ns

## Nc1cccc2c1C(=O)NC2=O
In C1CCOC1
  fluorescence lifetime: 15.2 ns
In CCO
  fluorescence lifetime: 16.3 ns
In CN(C)C=O
  fluorescence lifetime: 15.8 ns

## COc1ccc2c(c1)sc1[n+]2[B-](F)(F)OC(c2ccc(N(C)C)cc2)=N1
In Cc1ccccc1
  fluorescence lifetime: 1.59 ns

## COc1cnc(-c2cc[n+](C3=C(F)C(F)(F)C(F)(F)[C-]3F)cc2)s1
In CC#N
  fluorescence lifetime: 2.3 ns
In CC(C)=O
  fluorescence lifetime: 2.3 ns
In CCO
  fluorescence lifetime: 1.04 ns
In CN(C)C=O
  fluorescence lifetime: 0.41 ns
In CO
  fluorescence lifetime: 0.54 ns
In CS(C)=O
  fluorescence lifetime: 0.22 ns
In ClC(Cl)Cl
  fluorescence lifetime: 2.85 ns
In ClCCl
  fluorescence lifetime: 2.81 ns

## Fc1nc(F)c(F)c(C#Cc2cc3c(cc2C#Cc2c(F)c(F)nc(F)c2F)OC2(CCCCC2)O3)c1F
In CC#N
  fluorescence lifetime: 5.3 ns

## COC(=O)C12N=N[C@](C(=O)OC)(C3C4C=CC(C4)C31)[C@@H]1C[C@H]12 (some centres undefined)
In CC#N
  fluorescence lifetime: 131 ns

## N#CC=C(c1ccc(N2c3ccccc3Oc3ccccc32)cc1)c1ccc(N2c3ccccc3Oc3ccccc32)cc1
In Cc1ccccc1
  fluorescence lifetime: 5.84 ns

## COc1nnc(Cl)nn1
In ClCCl
  fluorescence lifetime: 160 ns

## Cc1ccccc1C
In C1CCCCC1
  fluorescence lifetime: 51 ns

## CN(C)c1ccc(-c2nc3c(c4c2-c2ccc(C#N)cc2CC4)-c2ccc(C#N)cc2CC3)cc1
In C1CCOC1
  fluorescence lifetime: 2.93 ns
In CC#N
  fluorescence lifetime: 3.56 ns
In CCCCCC
  fluorescence lifetime: 0.6 ns
In CCOC(C)=O
  fluorescence lifetime: 2.55 ns
In CO
  fluorescence lifetime: 1.13 ns
In CS(C)=O
  fluorescence lifetime: 1.79 ns
In Cc1ccccc1
  fluorescence lifetime: 1.4 ns
In ClCCl
  fluorescence lifetime: 1.68 ns

## CN(C)c1ccc(-c2nc(C#N)c(C#N)n2C)cc1
In C1CCCCC1
  fluorescence lifetime: 1.3 ns
In ClC(Cl)Cl
  fluorescence lifetime: 3.5 ns

## ClP1(Cl)=N[P@@](Cl)(Oc2ccc3ccc4cccc5ccc2c3c45)=N[P@@](Cl)(Oc2ccc3ccc4cccc5ccc2c3c45)=N1
In ClCCl
  fluorescence lifetime: 2.02 ns

## CCCCCCC(CCCCCC)N1C(=O)c2cccc3c(-c4cc(OC)c(OC)c(OC)c4)ccc(c23)C1=O
In CCCCCC
  fluorescence lifetime: 2.03 ns
In CCCCCCCCCCCCCC
  fluorescence lifetime: 2.78 ns
In CCCCCCCCCCCO
  fluorescence lifetime: 1.75 ns
In CCCCO
  fluorescence lifetime: 0.208 ns
In CN(C)C=O
  fluorescence lifetime: 0.119 ns
In Cc1ccccc1
  fluorescence lifetime: 5.4 ns
In ClC(Cl)Cl
  fluorescence lifetime: 6.62 ns

## O=c1c2ccccc2[nH]c2ccccc12
In CS(C)=O
  fluorescence lifetime: 9.1 ns

## CCCCCCCCCCOc1cc2cc(C#Cc3ccc(/C=C(\C#N)C(=O)O)cc3)c(=O)oc2cc1OCCCCCCCCCC
In CC#N
  fluorescence lifetime: 1.1 ns

## CCOC(=O)CCCCCn1c2ccccc2c(=O)c2cc(I)ccc21
In CO
  fluorescence lifetime: 1.7 ns

## C(=C\c1cc(-c2ccc3ccccc3c2)c(/C=C/c2ccc(N(c3ccccc3)c3ccccc3)cc2)cc1-c1ccc2ccccc2c1)/c1ccc(N(c2ccccc2)c2ccccc2)cc1
In ClCCl
  fluorescence lifetime: 1.17 ns

## COc1ccc(C2=C3C(C)=CC(C=Cc4ccc(C(=O)OC5C[C@H]6CCC5(C)C6(C)C)cc4)=[N+]3[B-](F)(F)n3c(/C=C/c4ccc(C(=O)OC5CC6CCC5(C)C6(C)C)cc4)cc(C)c32)cc1 (some centres undefined)
In Cc1ccccc1
  fluorescence lifetime: 2.6 ns

## Cc1cccc2c1nc1c(=O)n(C)c(=O)nc-1n2C
In CC#N
  fluorescence lifetime: 1.8 ns

## COc1c2ccccc2c(OC)c2c1c1ccc(C(F)(F)F)cc1n2C
In C1CCCCC1
  fluorescence lifetime: 26 ns
In CC#N
  fluorescence lifetime: 31.2 ns
In CO
  fluorescence lifetime: 28.6 ns
In ClCCl
  fluorescence lifetime: 25.8 ns

## COc1ccc(-c2nc(C)cc(-c3ccc(-n4c5ccccc5c5ccccc54)cc3)n2)cc1
In C1CCOC1
  fluorescence lifetime: 3.76 ns
In CN(C)C=O
  fluorescence lifetime: 6.51 ns
In Cc1ccccc1
  fluorescence lifetime: 1.87 ns
In ClC(Cl)Cl
  fluorescence lifetime: 3.91 ns

## C(=C\c1nc(-c2ccccc2)c2ccccn12)/c1nc(-c2ccccc2)c2ccccn12
In CC#N
  fluorescence lifetime: 1 ns

## Cn1cccc1-c1ccc(C#N)cc1
In CC#N
  fluorescence lifetime: 5.4 ns
In CCCCCC
  fluorescence lifetime: 1.8 ns
In CCOCC
  fluorescence lifetime: 5.21 ns

## CC(C)(C)c1ccc2c(c1)B1c3cc(C(C)(C)C)ccc3Oc3cc(N4c5ccccc5C(C)(C)c5ccccc54)cc(c31)O2
In Cc1ccccc1
  fluorescence lifetime: 6.6 ns

## CC1=[N+]2C(=C(c3ccc(C(=C(c4ccccc4)c4ccccc4)c4ccccc4)cc3)c3ccc(C)n3[B-]2(F)F)C=C1
In C1CCOC1
  fluorescence lifetime: 1.13 ns

## C[n+]1ccn(CCCCc2ccc3c(c2)c2ccccc2n3-c2cc(C#N)c(C#N)cc2F)c1
In CC#N
  fluorescence lifetime: 3.26 ns

## COc1ccc2c3c([nH]c2c1)C(C)=NCC3
In CC#N
  fluorescence lifetime: 5.29 ns
In CS(C)=O
  fluorescence lifetime: 2.91 ns
In O
  fluorescence lifetime: 4.65 ns

## N#Cc1ccc2cc[nH]c2c1
In C1CCOC1
  fluorescence lifetime: 3.7 ns
In C1COCCO1
  fluorescence lifetime: 3.9 ns
In CC#N
  fluorescence lifetime: 3.8 ns
In CC(C)O
  fluorescence lifetime: 3.7 ns
In CCO
  fluorescence lifetime: 3.7 ns
In CO
  fluorescence lifetime: 3.5 ns
In CS(C)=O
  fluorescence lifetime: 4.3 ns
In NC=O
  fluorescence lifetime: 4.2 ns
In O
  fluorescence lifetime: 0.6 ns
In OCC(F)(F)F
  fluorescence lifetime: 0.8 ns
In [2H]OC([2H])([2H])C(F)(F)F
  fluorescence lifetime: 1.1 ns
In [2H]O[2H]
  fluorescence lifetime: 0.8 ns

## CCCCCCCCCCCCSc1cc2c3c(ccc4c5c(SCCCCCCCCCCCC)cc6c7c(ccc(c1c34)c75)C(=O)N(C1CCCCC1)C6=O)C(=O)N(C1CCCCC1)C2=O
In ClC(Cl)Cl
  fluorescence lifetime: 8.5 ns

## COC(=O)c1[nH]c(-c2ccc(Br)cc2)c2nnc3ccc(OC)cc3c12
In ClCCl
  fluorescence lifetime: 0.58 ns

## CN(C)c1ccc2nc(-c3ccc(C=C(C#N)C#N)cc3)sc2c1
In C1CCCCC1
  fluorescence lifetime: 3.1 ns

## O=c1c2cccc3cccc(c32)c2nc3c4ccccc4c4ccccc4c3n12
In ClCCl
  fluorescence lifetime: 5.5 ns
